# Biological target: T1, human oxytocin receptor (Homo sapiens, UniProt P30559)
# T1 construct: host or cells: CHO cells, stably transfected (pcDNA3.1 vector)
# T1 sequence (P30559 1-389): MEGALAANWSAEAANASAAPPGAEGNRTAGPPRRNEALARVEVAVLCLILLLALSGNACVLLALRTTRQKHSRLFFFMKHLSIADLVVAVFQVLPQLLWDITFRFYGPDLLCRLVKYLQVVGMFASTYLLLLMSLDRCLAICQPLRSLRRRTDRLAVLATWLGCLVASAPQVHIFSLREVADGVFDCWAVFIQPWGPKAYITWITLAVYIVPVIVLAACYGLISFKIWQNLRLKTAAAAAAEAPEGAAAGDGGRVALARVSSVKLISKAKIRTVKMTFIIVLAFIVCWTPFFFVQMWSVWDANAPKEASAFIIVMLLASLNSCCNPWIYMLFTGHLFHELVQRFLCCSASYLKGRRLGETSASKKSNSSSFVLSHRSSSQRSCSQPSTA
# Experiment: Oxytocin binding in CHO cell membranes expressing human oxytocin receptors ([3H]oxytocin radioligand binding)
# Conditions: 100 nM
# Description: Chinese Hamster Ovary (CHO) cells stably transfected with the human oxytocin recptor (cf. Tanizawa et al., U.S. Pat. No. 5,466,584 (1995) to Rohto Pharmaceutical Co. Ltd., Osaka, Japan) were obtained from M. Thibonnier, Case Western Reserve University School of Medicine, Cleveland, Ohio.
# CHO cells transfected with the human oxytocin receptors obtained from M. Thibonnier (pcDNA3.1 vector) are allowed to grow to confluency (approx. >90%) in T-150 flasks under sterile conditions, in a cell culture medium consisting of F-12 Nutrient Mixture (HAM) with L-glutamine (Gibco Cat. #11765-054) containing 15 mM HEPES (Gibco Cat. #15630-080), 1% antibiotic/antimycotic (add 5 mL 1 00×, Gibco Cat. #15240-062 per 500 mL F-12), 400 μg/mL of Geneticin (add 4 mL of 50 mg/mL per 500 mL F-12) and 10% Fetal Bovine Serum (Qualified, heat inactivated, Gibco Cat. #16140-063). The medium is removed by aspiration and the cells are washed with 10 mL of Hank's Balanced Salt solution (Gibco Cat. #14175-095). The salt solution is removed by aspiration and the cells trypsinized with 5 mL of trypsin-EDTA (0.05% trypsin, 0.53 mM EDTA-4Na, Gibco Cat. #25300-070) for 1 min The trypsin is removed by aspiration and the cells dislodged by tapping. Cell Culture medium (e.g. 30 mL for 1:30 split) is immediately added and mixed well to inactivate trypsin. 1 mL of detached cells is added to new culture flasks containing fresh Cell Culture medium (e.g. into 25 mL per T-150 flask), and mixed gently. The cells are incubated at 37° C. in 5% CO2. The medium is changed at 3 to 4 days interval (or as appropriate). The cells grow to confluency (approx. >75%-95%) within 7-8 days. All steps are done under sterile conditions.
# The cells are washed twice gently with Hank's Balanced Salt solution (eg, use 10 mL per T-150 flask). The excess solution is removed and the cells bathed for 15-30 min. in an enzyme-free Cell Dissociation Buffer (eg, use 8 mL Hank's Based, Gibco Cat. #13150-016 per T-150 flask) until cells are loosened. The contents are transferred to centrifuge tubes (50 mL size) kept in ice bath. All subsequent steps are done at 4° C. The tubes are centrifuged at 300×g for 15 min (1380 rpm on SORVAL, Model RT6000D, using rotor for 50 mL tubes). The supernatant is discarded and the cells suspended in homogenizing buffer (10 mM Tris-HCl containing 0.25 M sucrose and 1 mM EDTA, pH 7.4) ensuring that the volume of the buffer is about ten times the volume of the cell pellet. The cells are pooled into a centrifuge tube (50 mL) and homogenized with a Polytron at setting 6 for 10 sec. The homogenate is transferred into a Potter-Elvjehm homogenizer and homogenized with 3 strokes. The homogenate is centrifuged at 1500×g for 10 min at 4° C. (3100 rpm using SORVAL, model RT6000D, using rotor for 50 mL tubes). The pellet is discarded. The supernatant is centrifuged at 100,000×g for 60 min. at 4° C. (Beckman L8-80M ultracentrifuge; spin at 37,500 rpm with rotor type 70 Ti for 50 mL tubes; 38,000 rpm with type 80 Ti for 15 mL tubes; or 35,800 rpm with rotor type 45Ti). The supernantant is discarded and the pellet suspended in 3 to 4 mL of Tris buffer (50 mM TRIS-HCl, pH 7.4). The protein content is estimated by the Bradford or Lowry method. The volume of the membrane suspension is adjusted with the membrane buffer (50 mM Tris-HCl containing 0.1% BSA and 0.1 mM PMSF) to give 3.0 mg/mL (or as appropriate) of protein. The membranes are aliquoted and stored at −70° C.
# In wells of a 96-well format microtiter plate, is added 90, 110 or 130 μL (to make up a final volume of 200 μL) of assay buffer containing 50 mM of Tris-HCl (pH 7.4), […], 1 mg % aprotinin, 1 mg % leupeptin, 2 mg % 1,10-phenanthroline, 10 mg % trypsin inhibitor, and 0.1 mM PMSF. The inhibitors are added on the day of the experiment. The components are mixed at room temperature, and then kept in ice bath following adjustment of the pH to 7.4. […]
row,OT % inhibition @ 100 nM [%],Compound
1,57,"Cc1cc(C(=O)N2Cc3ccc(C(=O)NCCC4CCCN4C)n3Cc3ccccc32)ccc1C1=CCCCC1 (centres unmarked) [Example 21, 10-[4-(1-Cyclohex-1-en-1-yl)-3-methylbenzoyl]-N-[2-(1-methyl-2-pyrrolidinyl)ethyl]-10,11-dihydro-5H-pyrrolo[2,1-c][1,4]benzodiazepine-3-carboxamide]"
2,92,"Cc1cc(C(=O)N2Cc3ccc(C(=O)N4CCN(CCN(C)C)CC4)n3Cc3ccccc32)ccc1C1=CCCCC1 [Example 22, {10-[4-(1-Cyclohex-1-en-1-yl)-3-methylbenzoyl]-10,11-dihydro-5H-pyrrolo[2,1-c][1,4]benzodiazepin-3-yl}{4-[2-(dimethylamino)ethyl]-1-piperazinyl}methanone]"
3,79,"Cc1cc(C(=O)N2Cc3ccc(C(=O)N4CCN(CCN5CCOCC5)CC4)n3Cc3ccccc32)ccc1C1=CCCCC1 [Example 23, {10-[4-(1-Cyclohex-1-en-1-yl)-3-methylbenzoyl]-10,11-dihydro-5H-pyrrolo[2,1-c][1,4]benzodiazepin-3-yl}{4-[2-(4-morpholinyl)ethyl]-1-piperazinyl}methanone]"
4,68,"C=CCN1CCN(C(=O)c2ccc3n2Cc2ccccc2N(C(=O)c2ccc(C4=CCCCC4)c(C)c2)C3)CC1 [Example 24, (4-Allyl-1-piperazinyl){10-[4-(1-cyclohex-1-en-1-yl)-3-methylbenzoyl]-10,11-dihydro-5H-pyrrolo[2,1-c][1,4]benzodiazepin-3-yl}methanone]"
5,71,"Cc1cc(C(=O)N2Cc3ccc(C(=O)N4CCN(C(C)C)CC4)n3Cc3ccccc32)ccc1C1=CCCCC1 [Example 25, {10-[4-(1-Cyclohex-1-en-1-yl)-3-methylbenzoyl]-1 0,11-dihydro-5H-pyrrolo[2,1-c][1,4]benzodiazepin-3-yl}(4-isopropyl-1-piperazinyl)methanone]"
6,101,"Cc1cc(C(=O)N2Cc3ccc(C(=O)N4CCC[C@H]4CN4CCCC4)n3Cc3ccccc32)ccc1C1=CCCCC1 [Example 26, {10-[4-(1-Cyclohex-1-en-1-yl)-3-methylbenzoyl]-10,11-dihydro-5H-pyrrolo[2,1-c][1,4]benzodiazepin-3-yl}[(2S)-2-(1-pyrrolidinylmethyl)pyrrolidinyl]methanone]"
7,100,"Cc1cc(C(=O)N2Cc3ccc(C(=O)N4CC[C@@H](N(C)C)C4)n3Cc3ccccc32)ccc1C1=CCCCC1 [Example 27, {10-[4-(1-Cyclohex-1-en-1-yl)-3-methylbenzoyl]-10,11-dihydro-5H-pyrrolo[2,1-c][1,4]benzodiazepin-3-yl}[(3R)-3-(dimethylamino)pyrrolidinyl]methanone]"

# Same assay, conditions: value in parentheses, read-out: OT (IC50)
row,IC50 [µM],Compound
1,0.0326,"{10-[4-(1-Cyclohexen-1-yl)-3-methylbenzoyl]-10,11-dihydro-5H-pyrrolo[2,1-c][1,4]benzodiazepin-3-yl}(4-methyl-piperazin-1-yl)methanone [Example 12]"

# From patent US7326700B2, “Cyclohexenyl phenyl carboxamides tocolytic oxytocin receptor antagonists” (Wyeth, priority 2001, dated 2008)
